Measurements reported in paper PMC7162838, “Production of multiple bacteriocins, including the novel bacteriocin gassericin M, by Lactobacillus gasseri LM19, a strain isolated from human milk” (Applied Microbiology and Biotechnology, 2020).
Read-outs that look alike come from different tables or passages of the source.

Test system: L. bulgaricus DPC6901
Experiment: Well-diffusion assay of naturally produced and synthetic peptides
Type: cell-based, Lactobacillus delbrueckii subsp. bulgaricus
Conditions: for antimicrobial activity of synthetic peptides: synthetic peptides resuspended in milli Q water at 1 mg/ml
[1] = fractions from HPLC fractionation I and II of L. gasseri LM19 cell extracts and supernatant, well-diffusion, Fig. 4a

“MALKTLEKHELRNVMGGNKWGNAVIGAATGATRGVSWCRGFGPWGMTACGLGGAAIGGYLGYKSN [GamX, class IIb bacteriocin peptide of L. gasseri LM19 cluster 3, purified from culture and synthesised]” was tested, and the “antimicrobial activity of HPLC fractions containing the peptide mass” value [1] was “low activity”.
In the case of “MIEKVSKNELSRIYGGNNVNWGSVAGSCGKGAVMGIYFGNPILGCANGAATSLVLQTASGIYKNYQKKR [Bact_2, bacteriocin peptide of L. gasseri LM19 cluster 1, identical to gassericin S peptide GasX]”, the “antimicrobial activity of HPLC fractions containing the peptide mass” value is reported as “largest zones of inhibition” and the “antimicrobial activity of synthetic peptides” value (well-diffusion, Fig. 4a) is reported as “highest activity”.
For “MKNFNTLSFETLANIVGGRNNWAANIGGVGGATVAGWALGNAVCGPACGFVGAHYVPIAWAGVTAATGGFGKIRK [GamA, class IIb bacteriocin peptide of L. gasseri LM19 cluster 3, purified from culture and synthesised]”, the “antimicrobial activity of HPLC fractions containing the peptide mass” value [1] was “largest zones of inhibition” and the “antimicrobial activity of synthetic peptides” value (well-diffusion, Fig. 4a) was “highest activity”.
With “MKTLNEQELTQIVGGKGNKGINWANVRCASAVTIGALGGGLAGPGGMVGGFLLGSGACF [GamY, peptide of the novel two-component bacteriocin gassericin M]” the “antimicrobial activity of HPLC fractions containing the peptide mass” value was “clear activity” and the “antimicrobial activity of synthetic peptides” value (well-diffusion, Fig. 4a) was “did not show activity”.
For “MKVLNECQLQTVVGGKNWSVAKCGGTIGTNIAIGAWRGARAGSFFGQPVSVGAGALIGASAGAIGGSVQCVGWLAGGGR [Bact_1, bacteriocin peptide of L. gasseri LM19 cluster 1, identical to gassericin S peptide GasA]”, the “antimicrobial activity of synthetic peptides” value (well-diffusion, Fig. 4a) was “lower than that from fractions containing the Bact_1 mass”.
For “MRKINKEELVEITGGFNAAKCAVGTAGGAFSIARGSAAFGVPGMVIGGILGGAAGALASCK [GamM, peptide of the novel two-component bacteriocin gassericin M]”, the “antimicrobial activity of HPLC fractions containing the peptide mass” value was “low activity” and the “antimicrobial activity of synthetic peptides” value (well-diffusion, Fig. 4a) was “notable”.
